Where a name gives a salt, the structure may show the parent alone.
Key:
[1] = molecular target: T1, Solute carrier organic anion transporter family member 1A1 (Rattus norvegicus, UniProt P46720); experiment: (§1) TP_TRANSPORTER: uptake in Xenopus laevis oocytes; type: functional, cell-based; conditions: oocyte
T1 sequence (P46720 whole entry): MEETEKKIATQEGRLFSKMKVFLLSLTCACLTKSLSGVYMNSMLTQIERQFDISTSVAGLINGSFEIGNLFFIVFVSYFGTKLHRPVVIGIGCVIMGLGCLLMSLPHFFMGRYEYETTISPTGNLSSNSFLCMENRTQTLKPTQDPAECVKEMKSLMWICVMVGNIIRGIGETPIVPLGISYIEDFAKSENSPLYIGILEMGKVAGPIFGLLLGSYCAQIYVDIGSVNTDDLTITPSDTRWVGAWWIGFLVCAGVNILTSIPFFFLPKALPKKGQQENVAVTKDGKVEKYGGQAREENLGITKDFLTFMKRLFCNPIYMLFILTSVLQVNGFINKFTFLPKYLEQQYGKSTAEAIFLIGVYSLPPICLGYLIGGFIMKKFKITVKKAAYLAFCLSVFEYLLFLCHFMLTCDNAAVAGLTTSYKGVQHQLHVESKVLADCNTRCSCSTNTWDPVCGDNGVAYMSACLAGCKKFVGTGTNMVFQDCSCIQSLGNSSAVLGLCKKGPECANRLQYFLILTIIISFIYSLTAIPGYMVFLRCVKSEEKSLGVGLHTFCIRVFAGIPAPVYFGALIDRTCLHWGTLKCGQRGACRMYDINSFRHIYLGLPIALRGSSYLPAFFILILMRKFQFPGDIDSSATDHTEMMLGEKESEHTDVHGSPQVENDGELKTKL

[2] = molecular target: T2, Hepatic sodium/bile acid cotransporter (Rattus norvegicus, UniProt P26435); experiment: as §1; type: functional, cell-based; conditions: oocyte
T2 sequence (P26435 whole entry): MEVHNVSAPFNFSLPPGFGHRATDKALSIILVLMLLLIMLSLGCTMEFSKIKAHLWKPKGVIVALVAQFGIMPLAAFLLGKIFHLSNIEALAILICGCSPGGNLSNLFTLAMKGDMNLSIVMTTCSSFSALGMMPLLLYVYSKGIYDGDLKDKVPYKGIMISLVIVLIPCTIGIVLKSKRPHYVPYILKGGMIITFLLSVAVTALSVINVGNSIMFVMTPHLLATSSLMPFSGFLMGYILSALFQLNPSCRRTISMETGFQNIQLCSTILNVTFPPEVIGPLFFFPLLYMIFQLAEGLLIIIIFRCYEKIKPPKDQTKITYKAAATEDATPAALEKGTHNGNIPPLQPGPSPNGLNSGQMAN

SMILES	Activity [1]	Activity [2]
NS(=O)(=O)O.N[C@@H](Cc1cc(I)c(Oc2cc(I)c(O)c(I)c2)c(I)c1)C(=O)O [THYROXINE SULFAMATE]	substrate [+]	
N[C@@H](Cc1ccc(Oc2cc(I)c(O)c(I)c2)c(I)c1)C(=O)O [REVERSE TRIIODOTHYRONINE]	substrate [+]	substrate [+]
N[C@@H](Cc1cc(I)c(Oc2ccc(OS(=O)(=O)O)c(I)c2)c(I)c1)C(=O)O [TRIIODOTHYRONINE SULFATE]	substrate [+]	substrate [+]
NC(Cc1cc(I)c(Oc2cc(I)c(OS(=O)(=O)O)c(I)c2)c(I)c1)C(=O)O (stereo not drawn) [THYROXINE SULFATE]	substrate [+]	substrate [+]
NC(Cc1ccc(Oc2ccc(O)c(I)c2)c(I)c1)C(=O)O (stereo not drawn) [DIIODOTHYRONINE]	substrate [+]	substrate [+]
NS(=O)(=O)O.N[C@@H](Cc1cc(I)c(Oc2ccc(O)c(I)c2)c(I)c1)C(=O)O [TRIIODOTHYRONINE SULFAMATE]	substrate [+]	
N[C@@H](Cc1ccc(Oc2cc(I)c(O)c(I)c2)c(I)c1)C(=O)O.O=S(=O)(O)O [REVERSE TRIIODOTHYRONINE(RT3) SULFATE]	substrate [+]	substrate [+]
N[C@@H](Cc1cc(I)c(Oc2cc(I)c(O)c(I)c2)c(I)c1)C(=O)O [LEVOTHYROXINE]	substrate [+]	substrate [+]
N[C@@H](Cc1cc(I)c(Oc2ccc(O)c(I)c2)c(I)c1)C(=O)O [LIOTHYRONINE]	substrate [+]	substrate [+]
NC(Cc1ccc(Oc2ccc(OS(=O)(=O)O)c(I)c2)c(I)c1)C(=O)O (stereo not drawn) [DIIODOTHYRONINE SULFATE]	substrate [+]	substrate [+]

Reference: ChEMBL document CHEMBL2074407, “Identification of thyroid hormone transporters” (Biochem Biophys Res Commun, 1999)
